Results taken from patent US20110064773A1, “PHARMACEUTICAL COMPOSITIONS COMPRISING A THYROID HORMON AND THEIR THERAPEUTIC USE” (UNIVERSITE JOSEPH FOURIER, priority 2007, published 2011).
Entries after “also recorded” stand apart in the source; their conditions may differ.

Experiments:
Type in all cases: in vivo, rat
Wistar rats [1] = experiment: Growth rate (body weight) and food intake of Wistar rats; conditions: for Body mass: 2.5 μg/100 g continuous
Experimental: Adult male rat bred in the animal room facilities of Laboratory of Fundamental and Applied Bioenergetics (Wistar strain) or purchased from Charles-River Laboratories, Domaine des oncins, L'ARBRESLE France [(genetically obese normoglycemic (Zucker or Fa/Fa) or diabetic (ZDF)] were caged individually in stainless steel hanging cages and maintained in a 22° C., 50±10% relative humidity and 12 h:12 h light:dark environment. All animals were fed ad libitum with a standard rat chow (Safe A04, Villemoisson, France) and tap water. Body mass and food intake were recorded twice/thrice a week and fresh food was provided at the same time to ensure minimal disturbance to the animals' food behavior.
Eight-week old rats (300 g±10 g) were anesthetized by simultaneous intraperitoneal injection of diazepam 4 mg/kg and ketamine 100 mg/kg. In order to maintain body temperature during the surgery (10 min), animals were placed on a warm blanket. After interscapular shaving, a small incision of 0.5 cm of the skin allows the subcutaneous implantation of a small pellet (containing rT3 or 3′,3-T2) with a 10-gauge precision trochar. The pellets, manufactured by Innovative Research of America (Sarasota, Fla., USA) are constituted of a biodegradable matrix that effectively and continuously release the active product in the animal.
[…] (reverseT3) or 3-3′ diiodothyronine (3-3′ T2) were used at different doses (5, 0.5, or 0.1 mg/pellet) were implanted in order to provide a continuous and constant drug delivery over 60 days (which represents 25 μg, 2.5 μg or 0.5 μg/day/100 g BW).
Wistar rats were treated with rT3 hormone by a daily intraperitoneal injection (IP) (25 μg/100 g BW), a daily sub-cutaneous injection (SC) (25 μg/100 g BW), or a per os administration included in the rat food (25 μg/100 g BW). The continuous and constant administration was performed by using a pellet (25 μg/100 g BW).
However the role of the administration site was further investigated by comparing continuous administration of rT3 by osmotic pump implanted either subcutaneously or intraperitonally with the reference treatment administered by sub-cutaneous pellets. Wistar rats were treated for 21 days with placebo, sub-cutaneous pellet or sub-cutaneous or intraperitoneal osmotic pumps. rT3 was administered continuously (2.5 μg/100 g).
Wistar rats were treated by a continuous and constant administration of low doses of rT3 by 3 different methods of administration: • a sub-cutaneous pellet, • an osmotic pump placed under the skin, and • an osmotic pump placed in the peritoneal cavity.

Wistar rats [2] = experiment: Body composition (adipose tissues, skeletal muscles, brown adipose tissue) of Wistar rats; conditions: for White adipose tissue mass / Brown adipose tissue: 2.5 μg/100 g continuous
Source text: (§1) At the end of the experimental period, animals were sacrificed by decapitation, in order to avoid the well-known effects of general anesthetics on mitochondrial metabolism. Blood samples were immediately collected and plasma was frozen for subsequent determination of serum metabolites and hormones. Liver, muscles and fat depots were quickly excised and weighed. Liver median lobe was rapidly freeze-clamped. Muscles (plantaris, soleus and gastrocnemius) were frozen in isopentane precooled in liquid nitrogen. Mesenteric fat consisted of adipose tissue surrounding the gastro-intestinal tract from the gastro-oesophageal sphincter to the end of the rectum with special care taken in distinguishing and removing the pancreas. Retroperitoneal fat pad was taken as the distinct depot behind each kidney along the lumbar muscles. Epididymal fat consisted of adipose tissue on top of the epididymis. For subcutaneous depot measurement, a rectangular piece of skin was taken on the right side of each animal from the median line of the abdomen between the spine and the right hip to the first rib. Interscapular brown adipose tissue was removed and dissected free from adjacent muscles and white adipose tissue. The heart ventricles, the right kidney and the spleen were also excised, weighed and frozen.

liver mitochondria = experiment: Rate of liver mitochondrial oxygen consumption (JO2) of treated Wistar rats; conditions: vs placebo
Experimental: The major part of the liver and the red part of each quadriceps were rinsed, and chopped into isolation medium (250 mM sucrose, 20 mM Tris-HCl and 1 mM EGTA-Tris, pH 7.4). Nuclei and cell debris were removed by centrifugation at 800 g for 10 min. Mitochondria were then isolated from the supernatant by spinning twice at 8,000 g for 10 minutes. The mitochondrial pellet was resuspended in 0.5 ml of isolation buffer and kept on ice. Mitochondrial protein was measured by the bicinchoninic acid method (Pierce, Rockford, Ill.). The final mitochondrial suspensions were maintained on ice and were used for measurements of oxygen consumption rate.
The rate of mitochondrial oxygen consumption (JO2) was measured at 30° C. in an incubation chamber with a Clark-type O2 electrode filled with 2 ml of incubation medium (125 mM KCl, 10 mM Pi-Tris, 20 mM Tris-HCl, 0.1 mM EGTA, pH 7.2). All measurements were performed using mitochondria (1.0 or 0.2 mg mitochondrial protein/ml for liver and skeletal muscle) incubated either with various substrates: glutamate/malate (5 mM/2.5 mM) and succinate (5 mM), alone or in combination, palmitoyl carnitine (55 μM) and octanoyl carnitine (100 μM). For each substrate, JO2 was recorded in the presence of the substrate alone (State 2) and following the addition of 1 mM ADP (state 3). Oligomycin (1.25 μg/mg protein) was added to the mitochondrial suspension to determine the non-phosphorylating respiratory rate (state 4). The incubation medium was constantly stirred with a built-in electromagnetic stirrer and bar flea. The efficiency of the mitochondrial oxidative phosphorylation was assessed by the state 3/state 4 ratio which measures the degree of control imposed on oxidation by phosphorylation (respiratory control ratio, RCR).

ZDF rats = experiment: Plasma lipid profiles of ZDF rats; conditions: 2.5 μg/100 g BW, day of sacrifice
Source text: as §1
Glucose and 3-hydroxybutyrate (3-HB) were measured enzymatically and non esterified fatty acid (NEFA) by colorimetric assay (Wako Chemicals).
Triglycerides and cholesterol were measured by classical routine automate apparatus.
To better understand the lipid metabolism, lipid profiles of free fatty acid (FFA, FIG. 29), triglycerides (FIG. 30), cholesterol (FIG. 31) and high density lipoprotein (HDL, FIG. 32) were analysed.

[3] = 25 μg/100 g BW/day, continuous subcutaneous pellet, 8 days
[4] = 250 μg/kg BW pellet, three weeks, vs placebo, p<0.01
[5] = high dose 25 μg/100 g BW pellet, three weeks, vs placebo
[6] = low dose 2.5 μg/100 g BW, sub-cutaneous pellet, 21 days
[7] = high dose 250 μg/kg BW/day, various substrates

N[C@@H](Cc1ccc(Oc2cc(I)c(O)c(I)c2)c(I)c1)C(=O)O [rT3, 3′,5′,3-triiodothyronine]
Body mass (Wistar rats [1]; osmotic pump in the peritoneal cavity, 21 days): significant reduction | Body mass (Wistar rats [1]; osmotic pump under the skin, 21 days): significant reduction | Food intake immediately after the pellet (Wistar rats [1]; 25 μg/100 g BW pellet, from day 4 until day 7): decrease | Influence on the animal mass (rat body weight) (Wistar rats [1]; 25 μg/100 g BW/day, continuous and constant administration (subcutaneous pellet), 8 days): reduce the rat body weight | Growth rate (body weight) (Wistar rats [1]; high dose 25 μg/100 g BW, subcutaneous pellet, 21 days, vs placebo): did not show any weight gain; also recorded: reduce the body weight | Appetite (food intake) (Wistar rats [1]; low dose 2.5 μg/100 g BW): without modifying their appetite | Body weight (body mass) (Wistar rats [1]; low dose 2.5 μg/100 g BW, sub-cutaneous pellet, 21 days, vs placebo): reduce the body weight; also recorded: significant reduction | White adipose tissue mass (Wistar rats [2]; intra-peritoneal osmotic pump, 21 days): significant reduction | Brown adipose tissue (Wistar rats [2]; intra-peritoneal pump, 21 days): all treatments were effective | White adipose tissue mass (Wistar rats [2]; sub-cutaneous osmotic pump, 21 days): significant reduction | Brown adipose tissue (Wistar rats [2]; sub-cutaneous pump, 21 days): more significantly enhanced | Muscular mass (Wistar rats [2]; 25 μg/100 g BW, 8 days, whatever the administration (pellet, IP, per os, sc)): unchanged | White fatty (adipose) tissue mass (Wistar rats [2]; 25 μg/100 g BW, daily intra-peritoneal injection, 8 days): have not effects | White fatty (adipose) tissue mass (Wistar rats [2]; 25 μg/100 g BW, daily oral administration, 8 days): have not effects | White fatty (adipose) tissue mass (Wistar rats [2]; 25 μg/100 g BW, daily sub-cutaneous injection, 8 days): have not effects | Brown adipose tissue mass (Wistar rats [2]; [3]): significantly enhanced | White fatty (adipose) tissue mass (Wistar rats [2]; [3]): significant white fatty tissue mass reduction | Epididymal fat mass (Wistar rats [2]; 250 μg/kg BW pellet, three weeks, vs placebo): not different | Mesenteric fat mass (Wistar rats [2]; [4]): significantly lower | Retroperitoneal fat mass (Wistar rats [2]; [4]): significantly lower | Subcutaneous fat mass (Wistar rats [2]; [4]): significantly lower | Brown adipose tissue mass (Wistar rats [2]; [5]): significantly increased; also recorded: high increase | Muscle mass (lean body mass) (Wistar rats [2]; [5]): not affected at all; also recorded: do not affect | Muscle tissues mass (Wistar rats [2]; low dose 2.5 μg/100 g BW): do not affect | Brown adipose tissue mass (Wistar rats [2]; [6]): intermediate increase; also recorded: more significantly enhanced | White adipose tissue mass (fat mass) (Wistar rats [2]; [6]): reduces the fat mass with a lower efficiency; also recorded: significant reduction | Liver mitochondrial respiratory rate, non-phosphorylating (state 4, oligomycin) (liver mitochondria; [7]): much higher as compared to placebo; also recorded: dose-dependent increase | Liver mitochondrial respiratory rate, phosphorylating (state 3, ADP) (liver mitochondria; [7]): very significant increased respiratory rate; also recorded: dose-dependent increase | Liver mitochondrial respiratory rate, non-phosphorylating (state 4) (liver mitochondria; low dose 25 μg/kg BW/day): decreased efficiency; also recorded: dose-dependent increase | Liver mitochondrial respiratory rate, phosphorylating (state 3) (liver mitochondria; low dose 25 μg/kg BW/day): higher maximal respiratory capacity; also recorded: dose-dependent increase | Cholesterol level (ZDF rats): not influenced | FFA in blood (ZDF rats): significantly enhanced | Triglycerides in blood (ZDF rats): significantly reduced
